From ChEMBL document CHEMBL1201862, “PubChem BioAssay data set” (2004)
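Interpolation was linear, between the two tested concentrations surrounding the appropriate level; five concentrations were tested over 48 hours in 96-well plates. GI50 marks 50% less growth.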 The source made the active and inactive calls. Cut-off read from the data, not from the text of the source: active = GI50 up to about 1.1 µM and inactive = higher.

Experiments:
Experiment in all cases: NCI tumour cell line growth inhibition, 48 h
HCT-116 = test system: HCT-116
CCRF-CEM = test system: CCRF-CEM
COLO 205 = test system: COLO 205
MOLT-4 = test system: MOLT-4
SK-MEL-28 = test system: SK-MEL-28
U-251 = test system: U-251
UO-31 = test system: UO-31
HL-60 = test system: HL-60
CAKI-1 = test system: CAKI-1
SR = test system: SR
Hs-578T = test system: Hs-578T
UACC-62 = test system: UACC-62
HCT-15 = test system: HCT-15
IGROV-1 = test system: IGROV-1
MDA-MB-435 = test system: MDA-MB-435
LOX IMVI = test system: LOX IMVI
MCF7 = test system: MCF7
OVCAR-5 = test system: OVCAR-5
SN12C = test system: SN12C
OVCAR-8 = test system: OVCAR-8
OVCAR-4 = test system: OVCAR-4
T47D = test system: T47D
SF-268 = test system: SF-268
SF-539 = test system: SF-539
HT-29 = test system: HT-29
SNB-75 = test system: SNB-75
ACHN = test system: ACHN
SW-620 = test system: SW-620
OVCAR-3 = test system: OVCAR-3
UACC-257 = test system: UACC-257
PC-3 = test system: PC-3
HOP-62 = test system: HOP-62
NCI-H460 = test system: NCI-H460
A549 = test system: A549
SK-MEL-2 = test system: SK-MEL-2
KM12 = test system: KM12
K562 = test system: K562
DU-145 = test system: DU-145
MDA-N = test system: MDA-N
NCI-H226 = test system: NCI-H226
A498 = test system: A498
M14 = test system: M14
NCI/ADR-RES = test system: NCI/ADR-RES
HOP-92 = test system: HOP-92
MDA-MB-231 = test system: MDA-MB-231
HCC 2998 = test system: HCC 2998
SF-295 = test system: SF-295
SK-OV-3 = test system: SK-OV-3
RXF 393 = test system: RXF 393
RPMI-8226 = test system: RPMI-8226
EKVX = test system: EKVX
NCI-H23 = test system: NCI-H23
786-0 = test system: 786-0
TK-10 = test system: TK-10
SNB-19 = test system: SNB-19
SK-MEL-5 = test system: SK-MEL-5
Malme-3M = test system: Malme-3M
NCI-H522 = test system: NCI-H522
BT-549 = test system: BT-549

Measured: GI50

N=C(N)SCc1ccc2c(c1)S(=O)(=O)c1ccccc1O2
25.8 µM: HCT-15
inactive: HCT-116 22 µM | CCRF-CEM 10.5 µM | COLO 205 29 µM | MOLT-4 19.1 µM | SK-MEL-28 16.4 µM | U-251 18.1 µM | UO-31 15.2 µM | HL-60 14.9 µM | CAKI-1 21.3 µM | SR 23 µM | Hs-578T 22.9 µM | UACC-62 15.8 µM | IGROV-1 16.4 µM | MDA-MB-435 15.5 µM | LOX IMVI 19.4 µM | MCF7 14.5 µM | OVCAR-5 22 µM | SN12C 37.5 µM | OVCAR-8 30.1 µM | OVCAR-4 22.3 µM | T47D 22.5 µM | SF-268 33.7 µM | SF-539 26.1 µM | HT-29 15.6 µM | SNB-75 14.6 µM | ACHN 15.8 µM | SW-620 17.8 µM | OVCAR-3 17 µM | UACC-257 16.3 µM | PC-3 17.7 µM | HOP-62 19 µM | NCI-H460 19.6 µM | A549 19 µM | SK-MEL-2 16.4 µM | KM12 16.9 µM | K562 26.7 µM | DU-145 32.4 µM | MDA-N 17.7 µM | NCI-H226 16.7 µM | A498 17.5 µM | M14 20.5 µM | NCI/ADR-RES 39.8 µM | HOP-92 15.7 µM | MDA-MB-231 39.8 µM | HCC 2998 22.1 µM | SF-295 21.2 µM | SK-OV-3 20.8 µM | RXF 393 21.2 µM | RPMI-8226 37.7 µM | EKVX 17 µM | NCI-H23 19.1 µM | 786-0 33.6 µM | TK-10 15.7 µM | SNB-19 61.1 µM

CCCCCN1CCN(c2ncccn2)CC1
inactive: HCT-116 > 100 µM | CCRF-CEM > 100 µM | COLO 205 > 100 µM | SK-MEL-28 > 100 µM | U-251 > 100 µM | UO-31 > 100 µM | HL-60 > 100 µM | CAKI-1 > 100 µM | SR > 100 µM | Hs-578T > 100 µM | UACC-62 > 100 µM | IGROV-1 > 100 µM | MDA-MB-435 > 100 µM | LOX IMVI > 100 µM | MCF7 > 100 µM | OVCAR-5 > 100 µM | SN12C > 100 µM | OVCAR-8 > 100 µM | OVCAR-4 > 100 µM | T47D > 100 µM | SF-268 > 100 µM | SF-539 > 100 µM | HT-29 > 100 µM | SNB-75 > 100 µM | ACHN > 100 µM | SW-620 > 100 µM | OVCAR-3 > 100 µM | UACC-257 > 100 µM | PC-3 > 100 µM | SK-MEL-5 > 100 µM | HOP-62 > 100 µM | A549 > 100 µM | SK-MEL-2 > 100 µM | KM12 > 100 µM | Malme-3M > 100 µM | K562 > 100 µM | DU-145 > 100 µM | NCI-H522 > 100 µM | MDA-N > 100 µM | A498 > 100 µM | M14 > 100 µM | NCI/ADR-RES > 100 µM | HOP-92 48.6 µM | MDA-MB-231 > 100 µM | HCC 2998 > 100 µM | SF-295 > 100 µM | RXF 393 > 100 µM | RPMI-8226 > 100 µM | EKVX > 100 µM | NCI-H23 > 100 µM | 786-0 > 100 µM | TK-10 > 100 µM | SNB-19 > 100 µM
> 100 µM: HCT-15

CO/N=C\c1ccc2c(c1)Sc1ccccc1O2
inactive: HCT-116 40.3 µM | COLO 205 66.4 µM | MOLT-4 54.7 µM | SK-MEL-28 > 100 µM | U-251 54.5 µM | UO-31 58.3 µM | HL-60 26.2 µM | CAKI-1 > 100 µM | SR 23.4 µM | Hs-578T 30.9 µM | UACC-62 71.1 µM | IGROV-1 62.4 µM | MDA-MB-435 29.9 µM | LOX IMVI 53.5 µM | MCF7 34.7 µM | OVCAR-5 48.2 µM | SN12C > 100 µM | OVCAR-8 95.9 µM | OVCAR-4 43.9 µM | T47D 24.5 µM | SF-268 72.3 µM | SF-539 40.7 µM | HT-29 33.1 µM | SNB-75 52.5 µM | ACHN > 100 µM | SW-620 73.8 µM | OVCAR-3 > 100 µM | UACC-257 57 µM | PC-3 51.9 µM | HOP-62 > 100 µM | NCI-H460 40.2 µM | A549 44.8 µM | SK-MEL-2 35.1 µM | KM12 42.3 µM | Malme-3M 31.4 µM | K562 51.8 µM | DU-145 > 100 µM | MDA-N 47.2 µM | NCI-H226 > 100 µM | A498 > 100 µM | M14 30.5 µM | NCI/ADR-RES 90.6 µM | HOP-92 36.4 µM | MDA-MB-231 > 100 µM | HCC 2998 45.7 µM | SF-295 36.3 µM | SK-OV-3 > 100 µM | RXF 393 27.5 µM | RPMI-8226 55.7 µM | EKVX 30.2 µM | NCI-H23 63 µM | 786-0 69.5 µM | TK-10 > 100 µM | SNB-19 > 100 µM
28.5 µM: HCT-15

O=C1CCC[C@@H]2NC[C@@H](c3ccc4c(c3)OCO4)[C@H]12
> 25 µM: HCT-15
inactive: HCT-116 > 25 µM | CCRF-CEM > 25 µM | COLO 205 > 25 µM | MOLT-4 > 25 µM | SK-MEL-28 > 25 µM | U-251 > 25 µM | UO-31 > 25 µM | HL-60 > 25 µM | CAKI-1 > 25 µM | SR > 25 µM | Hs-578T > 25 µM | UACC-62 > 25 µM | IGROV-1 > 25 µM | MDA-MB-435 > 25 µM | LOX IMVI > 25 µM | MCF7 > 25 µM | OVCAR-5 > 25 µM | SN12C > 25 µM | OVCAR-8 > 25 µM | OVCAR-4 > 25 µM | T47D > 25 µM | SF-268 > 25 µM | HT-29 > 25 µM | SNB-75 > 25 µM | ACHN > 25 µM | UACC-257 > 25 µM | PC-3 > 25 µM | SK-MEL-5 > 25 µM | HOP-62 > 25 µM | NCI-H460 > 25 µM | A549 > 25 µM | SK-MEL-2 > 25 µM | KM12 > 25 µM | Malme-3M > 25 µM | K562 > 25 µM | DU-145 > 25 µM | NCI-H522 > 25 µM | MDA-N > 25 µM | NCI-H226 > 25 µM | A498 > 25 µM | M14 > 25 µM | NCI/ADR-RES > 25 µM | HOP-92 > 25 µM | MDA-MB-231 > 25 µM | HCC 2998 > 25 µM | SF-295 > 25 µM | SK-OV-3 > 25 µM | RXF 393 > 25 µM | RPMI-8226 > 25 µM | EKVX > 25 µM | NCI-H23 > 25 µM | 786-0 > 25 µM | TK-10 > 25 µM | SNB-19 > 25 µM

CC(=O)n1c2ccc(Br)cc2c2nc3ccccc3nc21
inactive: HCT-116 > 100 µM | CCRF-CEM > 100 µM | COLO 205 > 100 µM | MOLT-4 > 100 µM | SK-MEL-28 > 100 µM | BT-549 > 100 µM | U-251 > 100 µM | UO-31 > 100 µM | HL-60 > 100 µM | CAKI-1 > 100 µM | SR > 100 µM | UACC-62 > 100 µM | IGROV-1 > 100 µM | MDA-MB-435 > 100 µM | LOX IMVI > 100 µM | MCF7 56.2 µM | OVCAR-5 > 100 µM | SN12C > 100 µM | OVCAR-8 > 100 µM | OVCAR-4 75.3 µM | SF-268 > 100 µM | SF-539 > 100 µM | HT-29 > 100 µM | SNB-75 > 100 µM | ACHN > 100 µM | SW-620 > 100 µM | OVCAR-3 > 100 µM | UACC-257 > 100 µM | PC-3 > 100 µM | SK-MEL-5 > 100 µM | HOP-62 95.1 µM | NCI-H460 > 100 µM | SK-MEL-2 > 100 µM | KM12 > 100 µM | Malme-3M > 100 µM | K562 > 100 µM | DU-145 > 100 µM | NCI-H522 > 100 µM | MDA-N > 100 µM | NCI-H226 > 100 µM | M14 > 100 µM | NCI/ADR-RES > 100 µM | HOP-92 > 100 µM | MDA-MB-231 > 100 µM | HCC 2998 > 100 µM | SF-295 > 100 µM | RXF 393 > 100 µM | RPMI-8226 > 100 µM | EKVX > 100 µM | NCI-H23 > 100 µM | 786-0 > 100 µM | TK-10 > 100 µM | SNB-19 > 100 µM
> 100 µM: HCT-15
